Measurements: paper PMC6892925, “Development of Novel Silyl Cyanocinnamic Acid Derivatives as Metabolic Plasticity Inhibitors for Cancer Treatment” (Scientific Reports, 2019)
Entries after “also recorded” stand apart in the source; their conditions may differ.

How the values were obtained:
[1] = tested on: MCF7, 4T1, WiDr, and MDA-MB-231 cell lines; test: MTT cell proliferation inhibition, all cell lines tested; format: cell-based; settings: read-out: MTT IC50 values, span over all the cell lines tested
Protocol: (§5) Cell proliferation inhibition was evaluated using 3-(4,5-dimethylthiazol-2-yl)-2,5-diphenyl tetrazolium bromide (MTT) assay as reported previously[19].

[2] = tested on: MCT1 expressing WiDr cell line; test: Seahorse XFe96 mitochondrial stress test (OCR); format: cell-based, human; settings: 30 µM, vs DMSO control
Protocol: (§1) To assess mitochondrial stress, four parameters including maximal respiration, proton leak, ATP production, and spare respiratory capacity were measured. ATP production via OxPhos is dependent on mitochondrial integrity and can be measured directly via the oxygen consumption rate (OCR). Time-course OCR plots from WiDr and MDA-MB-231 cells were used to calculate 2a and 2b treatment-induced changes in specified parameters following the addition of various mitochondrial targeting agents (Fig. 5A,B). […] Spare respiratory capacity is a value that is not directly linked to mitochondrial damage but represents the cells ability to respond to rapid ATP demands.
(§2) 20,000 cells/well were plated in 96-well Seahorse plates (Agilent, part no. 101085-004) and incubated 16–24 hours at 37 °C at 5% CO2. Flux pack sensors (Agilent, part no. 102416-100) were hydrated with XF calibrant solution (Agilent, part no. 100840-000) overnight at 37 °C in a non-CO2 incubator. The serum free assay media was prepared from Seahorse base medium (Agilent, part no. 102353-100) enriched with glutamine (1 mM) and sodium pyruvate (1 mM). The pH of the media was adjusted to 7.4. For glycolysis stress test the serum free assay media was used. For the mitochondrial stress test glucose (10 mM) was added to make an enriched serum free assay media. For both stress tests an 8X stock concentration of test compounds in their respective media was prepared for microplate injections in port A. Stock solutions of glucose (90 mM), oligomycin (10 μM), and 2-deoxyglucose (Chem Impex, 550 mM) were prepared such that their final working concentrations are 10 mM, 1 μM and 50 mM, respectively, for glycolysis stress test. For mitochondrial stress test, stock solutions of oligomycin (9 µM), FCCP (2.5–10 µM, cell line dependent), rotenone + antimycin A (5.5 µM) were prepared such that their final concentrations were 1 µM, 0.25–1 µM, and 0.5 µM, respectively in the enriched test media. Under glycolytic stress test, the cells were treated with test compounds, followed by the addition of glucose, oligomycin and 2-deoxyglucose at 14.29, 33.8, 53.35, 72.87 minutes, respectively. Under mitochondrial stress test, cells were treated with test compounds, followed by the addition of oligomycin, FCCP, and rotenone + antimycin A, at 14.29, 33.8, 53.35, 72.87 minutes, respectively. Extracellular acidification rates (ECAR) and oxygen consumption rates (OCR) were recorded in real-time for glycolysis and mitochondrial stress tests, respectively, using a Seahorse XFe96® analyzer (Agilent). The parameters related to glycolytic and mitochondrial functions were calculated utilizing the Wave 2.4.0 software (Agilent). ATP rate assay experiment was performed using manufactures (Agilent) protocol, and respective mitochondrial and glycolytic ATP rates were normalized to protein (BCA assay) and calculated using Wave 2.4.0 software.

[3] = tested on: MCT4 expressing MDA-MB-231 cell line; test: Seahorse XFe96 mitochondrial stress test (OCR); format: cell-based, human; settings: 30 µM, MDA-MB-231, vs DMSO control
Protocol: as §1, §2

MDA-MB-231 cells = test: Mitotracker Red CMXROS fluorescent microscopy; format: cell-based, human; settings: 30 μM, 24-hour exposure
Protocol: (§3) To evaluate the effects on mitochondrial morphology and vitality, Mitotracker Red CMXROS (MTR) fluorescence imaging experiments were employed. […] Furthermore, differential interference contrast (DIC) microscope images illustrate substantial membrane blebbing and vesiculation in compound treated cultures (Fig. 6).
(§4) MDA-MB-231 or WiDr cells (5 × 10^4 cells/mL) were seeded in glass-bottom dishes (MatTek Corp, part no. P35G010C) and incubated for 48 hours. Test compound (30 μM) was added and cells were again incubated for 24 hours prior to fluorescent microscopic imaging. In some cultures, MitoTracker Red CMXROS (Invitrogen, M7512, 100 nM) was added 15 min prior to imaging. The growth media was removed and replaced with 5% FBS in 1X PBS for imaging. Cells were then examined and photographed using a Nikon TE2000 epifluorescent microscope and camera. The images shown are representative of at least 3 fields of view of three separate experiments.

WiDr cells = test: Mitotracker Red CMXROS fluorescent microscopy; format: cell-based, human; settings: 30 μM, 24-hour exposure
Protocol: as §3, §4

healthy CD-1 mice = test: In vivo systemic toxicity study; design: species or system mouse; settings: once daily 25 mg/kg, 16-day treatment period
Protocol: Based on in vitro cell proliferation inhibition, MCT1 inhibition, and effects on glycolysis/mitochondrial function, we advanced candidate compounds 2a and 2b for translational in vivo safety and efficacy studies. […] Next, an MCT1 expressing WiDr tumor xenograft model was chosen to evaluate the efficacy of 2a and 2b. After tumors were inoculated, they were allowed to reach ~150 mm^3 volume, and mice were randomly divided into three groups. Group-1 was administered 25 mg/kg (i.p.) of compound 2a, group-2 was administered with 25 mg/kg (i.p.) of 2b, and group-3 was designated as control group and given an injection of vehicle. Treatment was continued for 16 days, and tumor volumes were recorded. […] During the two-week treatment period, there was no significant loss of body weights in mice between treated and control groups. […] At the end of the study, all the tumors were resected, and the tumor mass was weighed (Fig. 6D).
Five-week-old healthy CD-1 mice (Charles River) were obtained and acclimatized for one week prior to treatment. Mice (n = 6) were grouped randomly based on average body weight. […] Mice body weights were recorded daily as a proxy for animal health and were also examined for proper activity and grooming patterns. […]

MDA-MB-231 cell line = test: MTT cell proliferation inhibition assay; settings: Homo sapiens, MDA-MB-231, read-out: MTT IC50
Protocol: (§6) Human triple-negative breast cancer MDA-MB-231 cells (ATCC) were grown in DMEM supplemented with 10% FBS (Atlanta Biologicals) and penicillin-streptomycin (50U/ml, 50 µg/ml, Invitrogen). Human colorectal adenocarcinoma WiDr cells (ATCC) were cultured in MEM medium supplemented with 10% FBS and penicillin-streptomycin. […] Murine metastatic breast cancer 4T1 cells were grown in RPMI-1640 supplemented with 10% FBS and penicillin-streptomycin. Human estrogen receptor positive breast cancer MCF7 cells (Masonic Cancer Center, University of Minnesota) were grown in MEM supplemented with 6% FBS, EGF (0.01 µg/ml), NEAA, HDC (1 µg/ml), insulin (10 µg/ml), HEPES (12 mM) and sodium pyruvate (1 mM).
as §5

4T1 cell line = test: MTT cell proliferation inhibition assay; settings: Mus musculus, 4T1, read-out: MTT IC50
Protocol: as §6, §5

MCF7 cell line = test: MTT cell proliferation inhibition assay; settings: Homo sapiens, MCF7, read-out: MTT IC50
Protocol: as §6, §5

WiDr cell line = test: MTT cell proliferation inhibition assay; settings: Homo sapiens, read-out: MTT IC50
Protocol: as §6, §5

Row | SMILES | IC50 [1] [µM] | FCCP induced maximal respiration (OCR) [2] | oxygen consumption for mitochondrial ATP production (OCR) [2] | proton leak (OCR) [2] | spare respiratory capacity (OCR) [2] | FCCP induced maximal respiration (OCR) [3] | oxygen consumption for mitochondrial ATP production (OCR) [3] | proton leak (OCR) [3] | spare respiratory capacity (OCR) [3] | MTR fluorescence / mitochondrial morphology (MDA-MB-231 cells) | MTR fluorescence / mitochondrial morphology (WiDr cells) | systemic toxicity / tolerability (body weight gains, behavior, grooming) (healthy CD-1 mice) | IC50 (MDA-MB-231 cell line) [µM] | IC50 (4T1 cell line) [µM] | IC50 (MCF7 cell line) [µM] | IC50 (WiDr cell line) [µM]
1 | CC(C)(C)[Si](Oc1ccc(/C=C(\C#N)C(=O)O)cc1)(c1ccccc1)c1ccccc1 [2a] | 6 to 93 | significantly decreased | significantly decreased | significant increase | significant decrease | significantly decreased | significantly decreased | significant increase | significant decrease | more diffuse and dim general cytoplasmic fluorescence; also recorded: substantial redistribution of MTR | more diffuse and dim general cytoplasmic fluorescence; also recorded: substantial redistribution of MTR | well tolerated | 93 | 56 ± 1 | 39 ± 3 | 41 ± 2
2 | CC(C)(C)[Si](OCCOc1ccc(/C=C(\C#N)C(=O)O)cc1)(c1ccccc1)c1ccccc1 [2b] | 6 to 93 | significantly decreased | significantly decreased | significant increase | significant decrease | significantly decreased | significantly decreased | significant increase | significant decrease |  |  | well tolerated | 71 ± 1 | 22 ± 1 | 35 ± 3 | 6 ± 1
